Molecular target: T1, leukotriene induced contraction of guinea pig tracheal tissues (LTD4) (Cavia porcellus, UniProt Q2NNR5)
T1 construct: Guinea pig (adult male albino Hartley strain) tracheal spiral strips; from tissue; host or cells: guinea pig (adult male albino Hartley strain) tracheal spiral strips
T1 sequence (Q2NNR5 1-340): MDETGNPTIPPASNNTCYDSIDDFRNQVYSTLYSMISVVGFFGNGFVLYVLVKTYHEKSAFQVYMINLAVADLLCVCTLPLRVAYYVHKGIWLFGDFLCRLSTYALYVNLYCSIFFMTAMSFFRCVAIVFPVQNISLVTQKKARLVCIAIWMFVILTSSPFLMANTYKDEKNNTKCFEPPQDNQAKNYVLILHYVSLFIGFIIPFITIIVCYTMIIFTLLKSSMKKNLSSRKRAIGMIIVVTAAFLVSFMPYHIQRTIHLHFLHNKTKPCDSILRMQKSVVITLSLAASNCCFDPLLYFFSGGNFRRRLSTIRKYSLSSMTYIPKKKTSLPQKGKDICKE
Experiment: Inhibition of LTD4-induced contraction of guinea pig tracheal spiral strips in vitro (leukotriene antagonist activity)
Format: cell-based
Conditions: LTD4 cumulative concentration-response, 30 min pretreatment with test compound, meclofenamic acid 1 μM, pA2 = -log KB from EC30 (30% of carbachol contraction)
Method: The leukotriene antagonist activity of the compounds of this invention is measured by the ability of the compound to inhibit leukotriene induced contraction of guinea pig tracheal tissues in vitro. The following methodology was employed:
In vitro: Guinea pig (adult male albino Hartley strain) tracheal spiral strips of approximate dimensions 2 to 3 mm cross-sectional width and 3.5 cm length were bathed in modified Krebs buffer in jacketed 10 ml tissue bath and continously aerated with 95% O2 /5% CO2. The tissues were connected via silk suture to force displacement transducers for recording isometric tension. The tissues were equilibrated for 1 hr., pretreated for 15 minutes with meclofenamic acid (1 μM) to remove intrinsic prostaglandin responses, and then pretreated for an additional 30 minutes with either the test compound or vehicle control. A cumulative concentration-response curve for LTD4 on triplicate tissues was generated by successive increases in the bath concentration of the LTD4. […]
Calculations: The averages of the triplicate LTD4 concentration-response curves both in the presence and absence of the test compound were plotted on log graph paper. The concentration of LTD4 needed to elicit 30% of the contraction elicited by carbachol was measured and defined as the EC30. The pA2 value for the test compound was determined by the following equations: [formula] […]

CCCCCCCCCCCC/C=C\C(SCCC(=O)O)C(O)CO (stereo not shown) [3-[(2-Carboxyethyl)thio]-4(Z)-heptadecen-1,2-diol]
Kb: 6.31 µM
